Test results published in patent publication US10265303B2, “Hyperphenylalaninemia and treatments thereof” (BERGEN TEKNOLOGIOVERFØRING AS, priority 2015, dated 2019).
Numbering of substitutions follows the chain as printed.

Experiments:
[1] = target: T1, hPAH (Homo sapiens, UniProt P00439); assay: SPR screening and affinity determination on immobilized hPAH (Biacore T200); type: binding; settings: SPR, 25° C., compound 0-500 μM in 5% DMSO; affinities said to be overestimated, relative KD reliable; read-out: KD (μM) ± SER
T1 sequence (P00439 1-452): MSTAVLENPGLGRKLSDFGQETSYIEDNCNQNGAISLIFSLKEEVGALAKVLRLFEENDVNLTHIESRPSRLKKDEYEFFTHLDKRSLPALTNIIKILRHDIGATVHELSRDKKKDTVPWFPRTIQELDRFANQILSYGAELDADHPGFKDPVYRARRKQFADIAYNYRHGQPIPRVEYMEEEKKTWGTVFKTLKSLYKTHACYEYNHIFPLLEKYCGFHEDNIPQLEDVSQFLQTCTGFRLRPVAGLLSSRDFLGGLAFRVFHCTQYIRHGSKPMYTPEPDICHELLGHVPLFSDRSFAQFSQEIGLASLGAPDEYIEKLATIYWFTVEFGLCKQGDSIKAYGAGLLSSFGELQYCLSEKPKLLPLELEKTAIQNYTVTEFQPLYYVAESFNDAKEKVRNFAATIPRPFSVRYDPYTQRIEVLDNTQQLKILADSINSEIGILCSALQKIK
Protocol: For detailed determination of binding affinity of Compound 53 and derivatives (FIG. 4) SPR was performed on a Biacore T200 (GE Healthcare Life Sciences) at a temperature of 25° C. A hPAH solution at 0.08 μg/μl in a final volume of 200 μl in acetate buffer pH 5.0 was immobilized onto series S sensor chip CM5 by the standard amine coupling procedure at a flow rate of 30 μl/min and PBS-P+ buffer as running buffer aiming for RU 20000. After the coupling reaction the surface of the sensor chip was washed to eliminate unbound species with HBS buffer (0.01 M NaHepes pH 7.4, 0.15 M NaCI) at steady flow of 20 μl/min for 1 hour until the baseline drift was around 0.05 RU/s; note that an early injection of 40 μl dithiothreitol (DTT) 10 mM in HBS allowed for this reduced washing time.
For the screening, compounds were assayed at a concentration of 200 μM, with 5% DMSO in duplicates, including negative controls with 5% DMSO, positive controls, with 200 μM BH2 and solvent correction was also performed. For KD calculations, a compound concentration 0-500 μM (in 5% DMSO) were applied at otherwise analogous experimental design and analyses were performed using Biacore T200 Evaluation Software, version 2.0 (GE Healthcare Life Sciences).
All the responses from the compounds of the screening were subjected to blank subtraction (negative control 5% DMSO), molecular weight adjustment and solvent correction to account for differences in bulk response. Next a cut-off value for the screening was selected based on the response of the positive control of our experiments: RU BH2+3*SD (2.88+3*1.79=8.27). In this manner, from the 11 derivatives of Compound 53 tested (see FIG. 4) we weeded out those compounds with a lower response than 8.27, namely #53.2, #53.9 and #53.11.
In addition and for the rest of the compounds which continued our workflow, binding affinities were determined and the results are shown in the following table. The selected conditions to measure affinity are selected for high throughput measurements, but the affinities are overestimated though the relative KD for the different compounds are reliable.

[2] = target: tyrosine hydroxylase (TH) (Homo sapiens, UniProt P07101); settings: 68.9 μM, respect to 2% DMSO controls
Sequence of tyrosine hydroxylase (TH) (P07101 whole entry): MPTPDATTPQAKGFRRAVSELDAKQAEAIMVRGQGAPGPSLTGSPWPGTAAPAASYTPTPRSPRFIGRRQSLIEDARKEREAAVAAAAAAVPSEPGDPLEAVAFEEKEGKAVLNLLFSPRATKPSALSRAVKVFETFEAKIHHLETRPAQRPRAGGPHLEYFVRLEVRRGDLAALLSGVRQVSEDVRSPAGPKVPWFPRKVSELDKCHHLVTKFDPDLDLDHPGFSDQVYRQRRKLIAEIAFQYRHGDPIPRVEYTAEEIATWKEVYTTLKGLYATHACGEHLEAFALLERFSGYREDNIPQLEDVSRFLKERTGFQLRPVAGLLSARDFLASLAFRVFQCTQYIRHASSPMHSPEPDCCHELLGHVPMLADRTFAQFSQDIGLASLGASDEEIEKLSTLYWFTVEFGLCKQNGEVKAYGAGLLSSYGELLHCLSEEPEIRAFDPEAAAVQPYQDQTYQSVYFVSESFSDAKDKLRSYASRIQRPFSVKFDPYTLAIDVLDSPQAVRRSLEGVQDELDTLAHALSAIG

[3] = target: T2, I65T-PAH (Homo sapiens, UniProt P00439, I65T); assay: PAH protein level and activity in HEK293 EBNA cells transiently expressing PKU mutant I65T; type: cell-based; settings: 24 h
T2 construct: expressed in transfected cells; host or cells: HEK293 EBNA, transient, pcDNA3-PAH
T2 sequence (P00439 1-452 I65T): T1 sequence (P00439 1-452) with I65T
Protocol: Cell lysates were prepared as indicated above.

COc1cc(Cc2cnc(N)nc2N)cc(OC)c1OC [c53, trimethoprim]
Kd [1]: 58.5 ± 35.8 µM | effect on TH activity [2]: did not have large effect | protein and activity, mutant I65T, Compound 53 and BH2 together ([3]; 200 μM each): trends for additive effects | PAH activity, mutant I65T ([3]; 200 μM, 1% DMSO): greatly increased | hPAH protein level, mutant I65T ([3]; 200 μM, 1% DMSO): greatly increased
